Data set [1] has as its system transgenic fli-1: enhanced GFP zebrafish embryos. Briefly: Zebrafish embryo assay: antiangiogenic effects. The following applies: for inhibition in vivo at 1 µM / inhibition in vivo at 2.5 µM / inhibition in vivo at 10 µM: Danio rerio. Format: in vivo, zebrafish (Danio rerio). The procedure:
As stated previously, zebrafish is regarded as a powerful tool in the study of human diseases. […] In this study, all GA derivatives were incubated with the transgenic friend leukemia integration-1 (fli-1): enhanced GFP zebrafish embryos which carried a fli-1 promoter which can drive the expression of GFP in the whole endothelium.
Figure 1 Effects on neovascularization in zebrafish embryos. The transgenic fli-1: enhanced GFP zebrafish embryos in embryo water (0.2 g/L of instant ocean salt in distilled water) incubated with 1 μM of compounds at 6 h postfertilization (hpf) for 24 h. Zebrafish embryos were imaged (Imager.Z1, magnification: left, 40×; right, 100×).
Using transgenic fli-1: enhanced GFP zebrafish embryos, we investigated the effects of all compounds on angiogenesis. […] At about 6 h post fertilization (hpf), the embryos were sorted in the 6-well plate (six embryos/well), removing dead and unhealthy embryos. Then the embryos were treated with the indicated concentrations of compounds which were added into embryo water. After incubation for 24 or 48 h, the embryos were anesthetized using 0.05% 2-phenoxyethanol in embryo water, quantified and photographed.

In data set [2] the test system is zebrafish embryos. The data set can be described thus: Zebrafish toxicity: heart rates. Particulars: transgenic fli-1:enhanced GFP (fli-1:EGFP) line, zebrafish, in vivo. Format: in vivo. The protocol: (§1) To investigate the toxicity of these four compounds, the heart rates and the mortality rates of zebrafish embryos were recorded (Table 2 and Table 3). The heart rate of zebrafish in the control group was 117 beats/min.
(§2) Using transgenic fli-1: enhanced GFP zebrafish embryos, we investigated the effects of all compounds on angiogenesis. Zebrafish embryos were generated by natural pairwise mating and raised at 28.5 °C in embryo water (0.2 g/L of Instant Ocean Salt in distilled water). At about 6 h post fertilization (hpf), the embryos were sorted in the 6-well plate (six embryos/well), removing dead and unhealthy embryos. Then the embryos were treated with the indicated concentrations of compounds which were added into embryo water. After incubation for 24 or 48 h, the embryos were anesthetized using 0.05% 2-phenoxyethanol in embryo water, quantified and photographed.

The subject of data set [3] is zebrafish embryos. The data set can be described thus: Zebrafish toxicity: mortality rate. Format: in vivo, zebrafish (Danio rerio). The protocol: as §1, §2
Another data set concerns HUVECs. The data set can be described thus: Matrigel tube formation assay. In kind it is cell-based, Human. The following applies: Homo sapiens, HUVEC, 0.5 μM, 6 h, vs control, read-out: inhibitory rates of tube formation. The protocol: In the later stages of angiogenesis, tube formation of ECs is also an important process. Thus, a Matrigel tube formation assay was applied to assess the ability of HUVECs to form ECs vascular structures which is believed to be significant in new vessel formation.
Figure 4 Effects on the HUVECs tube formation. (I) HUVECs (1 × 10^4 cells) suspended in DMEM containing each compound (0.5 or 1 or 2 μM) were added to the Matrigel. Control was treated with DMEM alone. After incubation for 6 h at 37 °C, capillary networks were photographed and quantified (Olympus CKX41, magnification: 100×); (II) Rates of the HUVECs tube formation. The number of intact tubes was counted in five randomly chosen regions and expressed as the percentage of the control. The results were expressed as mean ±SD. ** p < 0.01; *** p < 0.005 compared with control.
Matrigel was dissolved at 4 °C overnight. Each well of prechilled 96-well plates was coated with 50 μL of Matrigel, incubated and solidified at 37 °C for 45 min. After removing the unsolidified fluid, HUVECs at the density of 1 × 10^4 were cultured in DMEM containing the indicated concentrations of compounds for 6 h. Controls were treated with the DMEM alone. Images were digitally captured and quantitatively analyzed (Olympus). The numbers and line lengths of the circular tubules formed by the cells were calculated manually. The values were observed from five randomly selected fields.

The next data set deals with A549. The data set can be described thus: MTT assay, cell proliferation. In kind it is cell-based. Particulars: Homo sapiens, 24 h, read-out: IC50, inhibition of cell proliferation. The procedure:
(§3) HepG2, HCT116, HeLa and LO2 cell lines were cultured in DMEM containing 10% fetal bovine serum (FBS), 100 IU/mL penicillin and 100 µg/mL streptomycin; A549 and K562 cell lines were cultured in RPMI 1640 medium containing 10% fetal bovine serum (FBS), 100 IU/mL penicillin and 100 µg/mL streptomycin; Human umbilical vein endothelial cells (HUVECs) were cultured on gelatin-coated culture flasks in M-199 medium with 20% fetal bovine serum (FBS), 2 ng/mL VEGF, 10 ng/mL basic FGF, 100 IU/mL penicillin, and 100 μg/mL streptomycin; all of them were obtained from the American Type Culture Collection (ATCC) and all cell lines were incubated in an atmosphere of 5% CO2 at 37 °C.
(§4) Cells were treated with various concentrations of compound in 96-well culture plates for 24 h in final volumes of 200 μL (5 × 10^3 cells/well). Then 20 μL of MTT solution (5 mg/mL) was added to each well, and cells were incubated for an additional 3 h. Then the medium was carefully removed, and precipitates were dissolved in 150 μL of DMSO, shaken mechanically for 30 min, and then absorbance values at a wavelength of 570 nm were taken on a spectrophotometer (Molecular Devices, Sunnyvale, CA, USA). Values were calculated using percentage of growth versus untreated control. The IC50 was defined as the concentration that caused 50% inhibition of cell proliferation, and was calculated by SAS statistical software.

A further data set relates to HCT116. Briefly: MTT assay, cell proliferation. Format: cell-based. Particulars: Homo sapiens, HCT-116, 24 h, read-out: IC50, inhibition of cell proliferation. The protocol: as §3, §4
(Formazan colour is commonly taken as a measure of viable cells.)

In the next data set the test system is HeLa. Briefly: MTT assay, cell proliferation. Format: cell-based. Particulars: Homo sapiens, 24 h, read-out: IC50, inhibition of cell proliferation. The protocol:
as §3, §4

The test system of the next data set is HepG2. Briefly: MTT assay, cell proliferation. In kind it is cell-based. The following applies: Homo sapiens, 24 h, read-out: IC50, inhibition of cell proliferation. The procedure:
as §3, §4

For a further data set, the system named is K562. The data set can be described thus: MTT assay, cell proliferation. In kind it is cell-based. The following applies: Homo sapiens, 24 h, read-out: IC50, inhibition of cell proliferation. The procedure: as §3, §4
The next data set relates to HUVEC. Briefly: MTT assay, cell proliferation. The following applies: Homo sapiens, 24 h, read-out: IC50, inhibition of cell proliferation. Format: cell-based, Human. The procedure:
Inhibiting the proliferation of ECs is another important strategy for antiangiogenesis. […] As the exposure time of these derivatives was 24 h in the migration assay and 6 h in the tube formation assay, the effect of the incubation for 24 h in the presence of these compounds on HUVECs proliferation was then tested. Cell viability was assessed by the MTT method. We can see from Table 4 that these compounds had different antiproliferative activities.
as §3, §4

For a further data set, the system named is LO2. Briefly: MTT assay, cytotoxicity. The following applies: Homo sapiens, L02, 24 h, read-out: IC50, inhibition of cell proliferation. Format: cell-based. The procedure: as §3, §4
Setting [4] is: 1 μM, zebrafish embryos, read-out: antiangiogenic rates.
[5] abbreviates: 1 μM, zebrafish embryos, vs vehicle (0.05% DMSO), read-out: Anti-angiogenic phenotype.
Setting [6] is: 2.5 μM, zebrafish embryos, vs vehicle (0.05% DMSO), read-out: Anti-angiogenic phenotype.
Where [7] appears, read: zebrafish embryos, vs vehicle (0.05% DMSO), read-out: Anti-angiogenic phenotype.
Where [8] appears, read: 2.5 µM and 10 µM, zebrafish embryos.

Read-outs that look alike come from different tables or passages of the source.

With `CC(=O)Nc1ccc(OC(=O)/C(C)=C\CC23OC(C)(C)C4CC(C=C5C(=O)c6c(O)c7c(c(CC=C(C)C)c6OC542)OC(C)(CCC=C(C)C)C=C7)C3=O)cc1` (stereo not drawn) [Compound 4, 4-Acetamidephenyl gambogate], the inhibition in vivo at 1 µM in data set [1] (setting [4]) and in [1] (setting [5]) was 25 to 50% each time. Besides, the inhibition in vivo at 2.5 µM in data set [1] (setting [6]) was 50 to 75%. Besides, in [1] (setting [7]), the inhibition in vivo at 10 µM was above 75%. For the same molecule, the “Heart rates of zebrafish” value in the data set on zebrafish embryos [2] (2.5 μM) is on record as 80 ± 5.31 beats/min; with zebrafish embryos [2] (10 μM) it was 54 ± 4.00 beats/min. For the same molecule, the Mortality rates in the data set with zebrafish embryos [3] (1 μM, zebrafish) is on record as 0%; with zebrafish embryos [3] (setting [8]), “less than 20%”; with zebrafish embryos [3] (2.5 μM, zebrafish), 6.7 ± 5.77 %; in the data set on zebrafish embryos [3] (10 μM, zebrafish), 20 ± 0.00 %. Further, in the data set with HUVECs, the inhibition at 0.5 µM is 43.5%. For the same molecule, the IC50 in the data set on A549 was 950 ± 90 nM; with HCT116 it was 480 ± 40 nM; in the data set with HeLa, 1340 ± 40 nM; with HepG2 it was 1100 ± 60 nM; with K562 it was 410 ± 20 nM; in the data set on HUVEC it was 1170 ± 120 nM. Besides, the IC50 in the data set on LO2 stood at 830 ± 30 nM.

Take `CC(C)=CCCC1(C)C=Cc2c(O)c3c(c(CC=C(C)C)c2O1)OC12C(=CC4CC1C(C)(C)OC2(C/C=C(/C)C(=O)Oc1ccc(Cl)cc1C=O)C4=O)C3=O` (stereo not drawn) [Compound 23, 4-Chloro-2-formylphenyl gambogate]: the antiangiogenic rates result in data set [1] (1 μM, zebrafish embryos) was “inactive”. In addition, in data set [1] (setting [7]), the inhibition in vivo at 10 µM was in the range of 25 to 50%. The IC50 in the data set on A549 stood at 73500 ± 3400 nM; with HCT116, 15900 ± 1460 nM; with HeLa it was 61600 ± 5860 nM; in the data set with HepG2, 20000 ± 2890 nM; in the data set with K562, 15400 ± 1350 nM; in the data set with HUVEC, 32000 ± 1760 nM. For the same molecule, in the data set on LO2, the IC50 was found to be 31700 ± 1940 nM.

As for `CCCC(=O)Nc1ccc(OC(=O)/C(C)=C\CC23OC(C)(C)C4CC(C=C5C(=O)c6c(O)c7c(c(CC=C(C)C)c6OC542)OC(C)(CCC=C(C)C)C=C7)C3=O)cc1` (stereo not drawn) [Compound 26, 4-Butyramidophenyl gambogate], the “antiangiogenic activities” value in data set [1] (2.5 μM, not enhanced greatly at 10 μM) was “moderate”. Besides, the inhibition in vivo at 1 µM in data set [1] (setting [4]) and in data set [1] (setting [5]) was 25 to 50% each time. In data set [1] (setting [6]), the inhibition in vivo at 2.5 µM was in the range of 25 to 50%. Further, the inhibition in vivo at 10 µM in data set [1] (setting [7]) lay in the range of 25 to 50%. The IC50 in the data set on A549 came out at 4000 ± 800 nM; in the data set on HCT116 it was 1730 ± 440 nM; in the data set with HeLa it was 4460 ± 570 nM; with HepG2 it was 1720 ± 120 nM; with K562, 770 ± 30 nM; in the data set with HUVEC, 2980 ± 100 nM. Besides, the IC50 in the data set on LO2 was found to be 4220 ± 500 nM.

For the molecule `CC(C)=CCCC1(C)C=Cc2c(O)c3c(c(CC=C(C)C)c2O1)OC12C(=CC4CC1C(C)(C)OC2(C/C=C(/C)C(=O)Nc1nccs1)C4=O)C3=O` (stereo not drawn) [Compound 32, Thiazol-2-gambogamide], the inhibition in vivo at 1 µM in [1] (setting [4]) and in data set [1] (setting [5]) was 25 to 50% throughout. Besides, the inhibition in vivo at 2.5 µM in [1] (setting [6]) fell in the range of 50 to 75%. Besides, the inhibition in vivo at 10 µM in data set [1] (setting [7]) was above 75%. Moreover, the “Heart rates of zebrafish” value with zebrafish embryos [2] (2.5 μM) came to 60 ± 4.36 beats/min; with zebrafish embryos [2] (10 μM), 54 ± 3.68 beats/min. For the same molecule, the Mortality rates is on record as 0% in the data set on zebrafish embryos [3] (1 μM, zebrafish); “less than 20%” in the data set with zebrafish embryos [3] (setting [8]); 6.7 ± 5.77 % in the data set with zebrafish embryos [3] (2.5 μM, zebrafish); 16.7 ± 5.77 % in the data set with zebrafish embryos [3] (10 μM, zebrafish). The inhibition at 0.5 µM in the data set with HUVECs is 39.1%. Moreover, the IC50 came out at 740 ± 40 nM with A549; 450 ± 10 nM in the data set with HCT116; 1080 ± 100 nM in the data set with HeLa; 810 ± 60 nM in the data set on HepG2; 400 ± 20 nM with K562; 1090 ± 90 nM in the data set with HUVEC. In the data set on LO2, the IC50 was determined as 1700 ± 480 nM.

The record behind these values is article PMC6268492, “Synthesis and Antiangiogenic Activity of Novel Gambogic Acid Derivatives” (Molecules, 2012).
